Laboratory results as given in patent US11160280B2, “Pesticial compounds” (BASF SE, priority 2017, dated 2021).

Legend:
Type in all cases: in vivo
[1] = tested on: yellow fever mosquito (Aedes aegypti); assay: whole plant or invertebrate; conditions: 48 h, larval mortality visually assessed after 2 days, read-out: mortality in comparison with untreated controls
Protocol: Example B1: Action on Yellow Fever Mosquito (Aedes aegypti)
For evaluating control of yellow fever mosquito (Aedes aegypti) the test unit consisted of 96-well-microtiter plates containing 200 μl of tap water per well and 5-15 freshly hatched A. aegypti larvae.
The active compounds were formulated using a solution containing 75% (v/v) water and 25% (v/v) DMSO. Different concentrations of formulated compounds or mixtures were sprayed onto the insect diet at 2.5 μl, using a custom built micro atomizer, at two replications.
After application, microtiter plates were incubated at 28+1° C., 80+5% RH for 2 days. Larval mortality was then visually assessed.

[2] = tested on: Orchid thrips (Dichromothrips corbetti); assay: Action on orchid thrips (Dichromothrips corbetti), floral-immersion technique; conditions: adult thrips, mortality 72 hours after treatment, read-out: mortality in comparison with untreated controls
Protocol: Example B2: Action on Orchid thrips (Dichromothrips corbetti)
Dichromothrips corbetti adults used for bioassay were obtained from a colony maintained continuously under laboratory conditions. For testing purposes, the test compound is diluted in a 1:1 mixture of acetone:water (vol:vol), plus Kinetic® HV at a rate of 0.01% v/v.
Thrips potency of each compound was evaluated by using a floral-immersion technique. All petals of individual, intact orchid flowers were dipped into treatment solution and allowed to dry in Petri dishes. Treated petals were placed into individual re-sealable plastic along with about […]. All test arenas were held under continuous light and a temperature of about 28° C. for duration of the assay. After 3 days, the numbers of live thrips were counted on each petal. The percent mortality was recorded 72 hours after treatment.

[3] = tested on: boll weevil (Anthonomus grandis); assay: Action on boll weevil (Anthonomus grandis), eggs on insect diet in microtiter plates; conditions: 120 h, egg and larval mortality after 5 days, read-out: mortality in comparison with untreated controls
Protocol: Example B3: Action on Boll Weevil (Anthonomus grandis)
For evaluating control of boll weevil (Anthonomus grandis) the test unit consisted of 96-well-microtiter plates containing an insect diet and 5-10 A. grandis eggs.
The compounds were formulated using a solution containing 75% v/v water and 25% v/v DMSO. Different concentrations of formulated compounds were sprayed onto the insect diet at 5 μl, using a custom built micro atomizer, at two replications.
After application, microtiter plates were incubated at about 25±1° C. and about 75±5% relative humidity for 5 days. Egg and larval mortality was then visually assessed.

[4] = tested on: Silverleaf Whitefly (Bemisia argentifoli) (Adults); assay: Action on silverleaf whitefly (Bemisia argentifoli) adults on sprayed cotton plants; conditions: Bemisia argentifolii, 72 h, mortality 3 days after treatment, read-out: mortality in comparison with untreated controls
Protocol: Example B4: Action on Silverleaf Whitefly (Bemisia argentifoli) (Adults)
The active compounds were formulated by a Tecan liquid handler in 100% cyclohexanone as a 10,000 ppm solution supplied in tubes. The 10,000 ppm solution was serially diluted in 100% cyclohexanone to make interim solutions. These served as stock solutions for which final dilutions were made by the Tecan in 50% acetone:50% water (v/v) into 5 or 10 ml glass vials. A nonionic surfactant (Kinetic®) was included in the solution at a volume of 0.01% (v/v). The vials were then inserted into an automated electrostatic sprayer equipped with an atomizing nozzle for application to plants/insects.
Cotton plants at the cotyledon stage (one plant per pot) were sprayed by an automated electrostatic plant sprayer equipped with an atomizing spray nozzle. The plants were dried in the sprayer fume hood and then removed from the sprayer. Each pot was pla-ced into a plastic cup and about 10 to 12 whitefly adults (approximately 3-5 days old) were introduced. The insects were collected using an aspirator and a nontoxic Tygon® tubing connected to a barrier pipette tip. The tip, containing the collected insects, was then gently inserted into the soil containing the treated plant, allowing insects to crawl out of the tip to reach the foliage for feeding. Cups were covered with a reusable screened lid. Test plants were maintained in a growth room at about 25° C. and about 20-40% relative humidity for 3 days, avoiding direct exposure to fluorescent light (24 hour photoperiod) to prevent trapping of heat inside the cup. Mortality was assessed 3 days after treatment, compared to untreated control plants.

[5] = tested on: tobacco budworm (Heliothis virescens); assay: Action on tobacco budworm (Heliothis virescens), eggs on insect diet in microtiter plates; conditions: 120 h, egg and larval mortality after 5 days, read-out: mortality in comparison with untreated controls
Protocol: Example B5: Action on Tobacco Budworm (Heliothis virescens)
For evaluating control of tobacco budworm (Heliothis virescens) the test unit consisted of 96-well-microtiter plates containing an insect diet and 15-25 H. virescens eggs.
The compounds were formulated using a solution containing 75% v/v water and 25% v/v DMSO. Different concentrations of formulated compounds were sprayed onto the insect diet at 10 μl, using a custom built micro atomizer, at two replications.
After application, microtiter plates were incubated at about 28±1° C. and about 80±5% relative humidity for 5 days. Egg and larval mortality was then visually assessed.

[6] = tested on: Diamond Back Moth (Plutella xylostella); assay: Action on diamond back moth (Plutella xylostella), cabbage leaf dip; conditions: foliar, 3rd instar larvae on dipped cabbage leaves, mortality 72 hours after treatment, read-out: mortality in comparison with untreated controls
Protocol: Example B6: Action on Diamond Back Moth (Plutella xylostella)
The active compound is dissolved at the desired concentration in a mixture of 1:1 (vol:vol) distilled water:acetone. Surfactant (Kinetic® HV) is added at a rate of 0.01% (vol/vol). The test solution is prepared at the day of use.
Leaves of cabbage were dipped in test solution and air-dried. Treated leaves were placed in petri dishes lined with moist filter paper and inoculated with ten 3rd instar larvae. Mortality was recorded 72 hours after treatment. Feeding damages were also recorded using a scale of 0-100%.

[7] = tested on: Southern Armyworm (Spodoptera eridania), 2nd Instar Larvae; assay: Action on southern armyworm (Spodoptera eridania), 2nd instar larvae on sprayed lima bean plants; conditions: 96 h, 2nd instar larvae on lima bean plants, 4 days after treatment, read-out: mortality in comparison with untreated controls
Protocol: Example B7: Action on Southern Armyworm (Spodoptera eridania), 2nd Instar Larvae
The active compounds were formulated by a Tecan liquid handler in 100% cyclohexanone as a 10,000 ppm solution supplied in tubes. The 10,000 ppm solution was serially diluted in 100% cyclohexanone to make interim solutions. These served as stock solutions for which final dilutions were made by the Tecan in 50% acetone:50% water (v/v) into 10 or 20 ml glass vials. A nonionic surfactant (Kinetic®) was included in the solution at a volume of 0.01% (v/v). The vials were then inserted into an automated electrostatic sprayer equipped with an atomizing nozzle for application to plants/insects.
Lima bean plants (variety Sieva) were grown 2 plants to a pot and selected for treatment at the 1st true leaf stage. Test solutions were sprayed onto the foliage by an automated electrostatic plant sprayer equipped with an atomizing spray nozzle. The plants were dried in the sprayer fume hood and then removed from the sprayer. Each pot was placed into perforated plastic bags with a zip closure. About 10 to 11 armyworm larvae were placed into the bag and the bags zipped closed. Test plants were maintained in a growth room at about 25° C. and about 20-40% relative humidity for 4 days, avoiding direct exposure to fluorescent light (24 hour photoperiod) to prevent trapping of heat inside the bags. Mortality and reduced feeding were assessed 4 days after treatment, compared to untreated control plants.

CO[C@@H]1[C@@H](OC)[C@H](C)O[C@@H](OC(=O)Nc2ccc3c(C(=O)Nc4ccc(OC(F)(F)F)cc4)nn(C)c3c2)[C@@H]1OC [Example C-6, [(2S,3R,4R,5S,6S)-3,4,5-trimethoxy-6-methyl-tetrahydropyran-2-yl] N-[1-methyl-3-[[4-(trifluoromethoxy)phenyl]carbamoyl]indazol-6-yl]carbamate]
≥ 75%: mortality at 800 ppm [1] | mortality at 500 ppm [2] | mortality at 800 ppm [3] | mortality at 300 ppm [4] | mortality at 800 ppm [5] | mortality at 500 ppm [6] | mortality at 300 ppm [7]

CC(C)c1ccccc1NC(=S)N/N=C/c1ccc2c(C(C)Oc3ccc(OC(F)(F)F)cc3)nn(C)c2c1 (centres unmarked) [Example C-12, 1-(2-isopropylphenyl)-3-[(E)-[1-methyl-3-[1-[4-(trifluoromethoxy)phenoxy]ethyl]indazol-6-yl]methyleneamino]thiourea]
≥ 75%: mortality at 800 ppm [1] | mortality at 500 ppm [2] | mortality at 800 ppm [3] | mortality at 300 ppm [4] | mortality at 800 ppm [5] | mortality at 500 ppm [6] | mortality at 300 ppm [7]
